{"source": "paper PMC6823370", "about": "“A novel nucleoside rescue metabolic pathway may be responsible for therapeutic effect of orally administered cordycepin” (Scientific Reports, 2019)", "key": {"[1]": {"assay": "Sample storage stability of cordycepin in rat plasma containing pentostatin", "type": "in vitro ADME", "conditions": "for Autosampler (24 h, 4°C) sample stability: processed samples; for Freeze-thaw (3 cycles) sample stability / Long-term (4 weeks, -80°C) sample stability / Long-term (5 days, -80°C) sample stability / Short-term (4 h, RT) sample stability: rat plasma with 10 µM pentostatin", "method": "Stability of cordycepin was tested in different conditions. […] Samples withdrawn at pre-determined time points were prepared and analysed for stability and degradation rate of cordycepin in rat plasma.\nSample storage stability studies were conducted with QC samples (LQC, MQC and HQC; 5 replicates for each condition). […] Short-term (benchtop) stability was tested after storing spiked QC samples for 4 h at room temperature. Long-term stability was tested in storage condition of -80 °C for 5 days and 4 weeks. Freeze-thaw cycle stability was tested after undergoing three cycles between -80 °C and room temperature. Autosampler stability was tested by analysing processed QC samples after storage at 4 °C for 24 h. All stability samples were quantified with freshly prepared calibration curve samples. Stock solution stability was tested by analysing five different aliquots of 1000 ng/mL working standard solution stored for 6 h at room temperature and comparing to a fresh working standard solution."}, "RAW264.7 cells": {"system": "RAW264.7 cells", "assay": "Repression of inflammatory gene expression in LPS-stimulated RAW264.7 cells (qPCR)", "type": "cell-based, mouse", "conditions": "20 µM, 1 h prior to LPS stimulation", "method": "RAW 264.7 mouse macrophage cells were cultured in DMEM supplemented with 10% FBS. Prior to experiments, cells were washed with PBS and cells were maintained in DMEM with 0.5% FBS or 10% FBS for 24 h. LPS was added at 1 µg/mL, 1 h before compound treatment, when needed. When the cells were analysed for concentration levels of cordycepin, 3′-deoxyinosine and CordyTP, the cells were washed twice with PBS. The cells were then treated with methanol and mixed vigorously before the mixture was harvested. The mixture was filtered using filter tubes mentioned above and the filtrate was analysed by liquid chromatography coupled with tandem mass spectrometry (LC-MS/MS). For determination of relative mRNA levels, RNA was isolated from the lysates using an RNA isolation kit, following manufacturer’s protocol (Promega, Madison, WI, cat no. Z6012). RNA was reverse transcribed to cDNA using SuperScript™ III reverse transcriptase (Invitrogen, Carlsbad, CA). Quantitative polymerase chain reaction (qPCR), was performed with Qiagen Rotor-Gene Q qPCR machine (Qiagen, Hilden, Germany) using Promega SYBR Green GoTaq® qPCR master mix (Promega).\nFigure 3 Repression effect on inflammatory gene expression. (a) NBTI or ITu treatment prior to cordycepin treatment suppresses effect of cordycepin. RAW264.7 cells were treated with 10 µM NBTI, 100 nM ITu or DMSO (Ctrl, control) 15 min prior to cordycepin treatment. The cells were stimulated with LPS 1 h after cordycepin treatment (mean ± SD, n = 3). **p < 0.01; ***p < 0.001 compared to DMSO treatment (labelled as Ctrl). (b) 3′-deoxyinosine exerts same repression effect as cordycepin, although to a lesser degree. RAW264.7 cells were treated with 20 µM cordycepin, 20 µM 3′-deoxyinosine (3DI) or DMSO (Ctrl, control) for 1 h prior to LPS stimulation (mean ± SD, n = 3). **p < 0.01; ***p < 0.001 compared to without compound treatment (labelled as LPS)."}, "[2]": {"assay": "Plasma stability of cordycepin in human plasma", "type": "in vitro ADME", "conditions": "read-out: ex vivo stability half-life (t1/2) in plasma", "method": "Stability of cordycepin in plasma was tested using human and rat plasma by following a previously reported method with minor modifications. Cordycepin was spiked into the plasma at 10 µM and the samples were incubated in a shaking incubator (Thermo Scientific MaxQ4000, Waltham, MA, USA) at 37 °C and shaken at 250 rpm. Samples (100 µL) were withdrawn at predetermined time points. […] The experiments were performed in triplicates.\nSamples from studies of plasma stability, protein binding, biorelevant solubility and liver microsomal stability were subjected to liquid-liquid extraction and HPLC-UV analysis. To 100 µL of sample, internal standard (2′-deoxyadenosine) was spiked at 10 µg/mL and 300 µL of 0.1 M NaOH was added. Extraction solvent (3 mL) of ethyl acetate-isopropyl alcohol (85:15, v/v) was added and vortex-mixed for 10 min. Samples were then centrifuged at 1160 g for 5 min and the supernatant was transferred and dried under N2 gas. Dried samples were reconstituted with 100 uL of deionised distilled water (DDW) and 40 µL was injected into the HPLC-UV. The HPLC-UV setup was adopted from a validated method[22] with addition of a gradient scheme to elute the impurities from samples. Waters Alliance 2695 module with Waters 996 PDA detector was used for the HPLC-UV system with Capcell Pak C18 3 µm, 4.6 × 150 mm as the stationary phase. […]"}}, "data": [{"molecule": "Nc1ncnc2c1ncn2[C@@H]1O[C@H](CO)C[C@H]1O", "note": "[cordycepin, 3′-deoxyadenosine]", "values": [{"measurement": "Autosampler (24 h, 4°C) sample stability", "setting": "[1]; HQC 4000 ng/mL", "value": "100.4 ± 3.4"}, {"measurement": "Freeze-thaw (3 cycles) sample stability", "setting": "[1]; HQC 4000 ng/mL", "value": "106.7 ± 7.4"}, {"measurement": "Long-term (4 weeks, -80°C) sample stability", "setting": "[1]; HQC 4000 ng/mL", "value": "103.8 ± 1.5"}, {"measurement": "Long-term (5 days, -80°C) sample stability", "setting": "[1]; HQC 4000 ng/mL", "value": "98.6 ± 5.4"}, {"measurement": "Short-term (4 h, RT) sample stability", "setting": "[1]; HQC 4000 ng/mL", "value": "107.4 ± 2.9"}, {"measurement": "Autosampler (24 h, 4°C) sample stability", "setting": "[1]; LQC 5 ng/mL", "value": "113.8 ± 8.9"}, {"measurement": "Freeze-thaw (3 cycles) sample stability", "setting": "[1]; LQC 5 ng/mL", "value": "104.5 ± 7.4"}, {"measurement": "Long-term (4 weeks, -80°C) sample stability", "setting": "[1]; LQC 5 ng/mL", "value": "93.5 ± 7.0"}, {"measurement": "Long-term (5 days, -80°C) sample stability", "setting": "[1]; LQC 5 ng/mL", "value": "107.4 ± 3.8"}, {"measurement": "Short-term (4 h, RT) sample stability", "setting": "[1]; LQC 5 ng/mL", "value": "104.7 ± 9.2"}, {"measurement": "Autosampler (24 h, 4°C) sample stability", "setting": "[1]; MQC 80 ng/mL", "value": "91.6 ± 3.6"}, {"measurement": "Freeze-thaw (3 cycles) sample stability", "setting": "[1]; MQC 80 ng/mL", "value": "113.1 ± 13.1"}, {"measurement": "Long-term (4 weeks, -80°C) sample stability", "setting": "[1]; MQC 80 ng/mL", "value": "113.5 ± 3.3"}, {"measurement": "Long-term (5 days, -80°C) sample stability", "setting": "[1]; MQC 80 ng/mL", "value": "110.0 ± 3.3"}, {"measurement": "Short-term (4 h, RT) sample stability", "setting": "[1]; MQC 80 ng/mL", "value": "98.2 ± 7.3"}, {"measurement": "effect on expression of inflammatory genes", "setting": "RAW264.7 cells", "value": "inhibitory effect"}, {"measurement": "half-life at 10 µM", "setting": "[2]", "value": "25.8 ± 4", "unit": "min"}]}]}
